Reference: ChEMBL document CHEMBL5338751, “Discovery of the First-in-Class Intestinal Restricted FXR and FABP1 Dual Modulator ZLY28 for the Treatment of Nonalcoholic Fatty Liver Disease” (J Med Chem, 2023)
Calls of active or inactive are those of the source. The calls are words filed in the database; no cut-off is given here.

Columns and labels:
[1] = biological target: T1, Fatty acid-binding protein, liver (Homo sapiens, UniProt P07148); assay: Displacement of 8-anilino-1-naphthalene-sulfonic acid from FABP1 (unknown origin) incubated for 3 mins by fluorescence based assay
T1 sequence (P07148 whole entry): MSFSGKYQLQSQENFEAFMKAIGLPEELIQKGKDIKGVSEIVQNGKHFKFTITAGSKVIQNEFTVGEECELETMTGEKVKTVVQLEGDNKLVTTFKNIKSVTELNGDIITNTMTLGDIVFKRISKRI

[2] = Metabolic stability in rhesus monkey liver microsomes assessed as parent compound remaining incubated for 1 hr by LC-MS analysis; type: ADME, Macaca mulatta, Microsome; conditions: read-out: Stability
[3] = Inhibition of PPARbeta/delta (unknown origin) transfected in HepG2 cells incubated for 18 hrs in presence of GW0742 by dual luciferase reporter assay; conditions: Homo sapiens, HepG2, 18 h
[4] = Subacute toxicity in ICR mouse assessed as animal death at 500 mg/kg/day, po administered for 14 days; type: organism-based; conditions: in vivo, 336 h, time 14 day
[5] = biological target: Progesterone receptor (Homo sapiens, UniProt P06401); assay: Activation of Gal-DBD and NHRLBD fused PR (unknown origin) transfected in African green monkey CV-1 cells by luciferase reporter assay; type: cell-based
Chain of Progesterone receptor (P06401 whole entry, the tested form may be a part): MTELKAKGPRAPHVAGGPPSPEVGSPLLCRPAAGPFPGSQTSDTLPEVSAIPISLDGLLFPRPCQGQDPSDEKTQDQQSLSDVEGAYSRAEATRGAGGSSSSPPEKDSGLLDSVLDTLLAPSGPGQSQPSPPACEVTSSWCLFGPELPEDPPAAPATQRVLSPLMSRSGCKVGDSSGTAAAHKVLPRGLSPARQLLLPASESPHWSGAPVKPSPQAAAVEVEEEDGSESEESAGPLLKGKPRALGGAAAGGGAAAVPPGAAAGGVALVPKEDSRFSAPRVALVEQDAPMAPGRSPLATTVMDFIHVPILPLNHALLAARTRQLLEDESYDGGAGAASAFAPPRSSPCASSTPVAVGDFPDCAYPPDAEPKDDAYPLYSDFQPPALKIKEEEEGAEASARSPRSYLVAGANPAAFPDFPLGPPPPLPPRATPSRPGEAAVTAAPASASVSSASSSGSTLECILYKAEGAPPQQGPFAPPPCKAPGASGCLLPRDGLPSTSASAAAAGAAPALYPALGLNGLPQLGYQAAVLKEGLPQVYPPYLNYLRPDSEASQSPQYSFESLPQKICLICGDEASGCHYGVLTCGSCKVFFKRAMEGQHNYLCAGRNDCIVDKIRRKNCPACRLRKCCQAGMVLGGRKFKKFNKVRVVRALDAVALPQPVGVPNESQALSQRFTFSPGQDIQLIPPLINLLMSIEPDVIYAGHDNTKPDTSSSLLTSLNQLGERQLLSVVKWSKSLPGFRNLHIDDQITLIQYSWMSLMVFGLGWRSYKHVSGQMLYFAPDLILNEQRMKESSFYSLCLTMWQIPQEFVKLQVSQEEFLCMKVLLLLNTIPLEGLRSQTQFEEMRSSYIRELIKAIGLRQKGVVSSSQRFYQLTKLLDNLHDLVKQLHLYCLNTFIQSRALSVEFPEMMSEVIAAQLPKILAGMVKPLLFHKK

[6] = Ratio of drug level in liver to plasma in C57BL/6 mouse at 20 mg/kg, po administered for 5 days and measured after 1 hr post final dose by LC-MS analysis
[7] = Drug concentration in C57BL/6 mouse liver at 20 mg/kg, po administered for 5 days and measured after 1 hr post final dose by LC-MS analysis; type: ADME, organism-based; conditions: time 5 day, read-out: Ct
[8] = Metabolic stability in Beagle dog liver microsomes assessed as parent compound remaining incubated for 1 hr by LC-MS analysis; type: ADME, Canis lupus familiaris, Microsome; conditions: read-out: Stability
[9] = test system: Mus musculus; assay: Anti-NASH activity in western diet and CCl4-induced nonalcoholic steatohepatitis C57BL/6 mouse assessed as alleviation of hepatic steatosis at 20 mg/kg, po administered for 12 weeks starting from week 8 and change in dose for every 5 days; type: functional, organism-based; conditions: time 4.0 weeks
[10] = biological target: Estrogen receptor (Homo sapiens, UniProt P03372); assay: Activation of Gal-DBD and NHRLBD fused ERalpha (unknown origin) transfected in African green monkey CV-1 cells by luciferase reporter assay; type: cell-based
Chain of Estrogen receptor (P03372 whole entry, the tested form may be a part): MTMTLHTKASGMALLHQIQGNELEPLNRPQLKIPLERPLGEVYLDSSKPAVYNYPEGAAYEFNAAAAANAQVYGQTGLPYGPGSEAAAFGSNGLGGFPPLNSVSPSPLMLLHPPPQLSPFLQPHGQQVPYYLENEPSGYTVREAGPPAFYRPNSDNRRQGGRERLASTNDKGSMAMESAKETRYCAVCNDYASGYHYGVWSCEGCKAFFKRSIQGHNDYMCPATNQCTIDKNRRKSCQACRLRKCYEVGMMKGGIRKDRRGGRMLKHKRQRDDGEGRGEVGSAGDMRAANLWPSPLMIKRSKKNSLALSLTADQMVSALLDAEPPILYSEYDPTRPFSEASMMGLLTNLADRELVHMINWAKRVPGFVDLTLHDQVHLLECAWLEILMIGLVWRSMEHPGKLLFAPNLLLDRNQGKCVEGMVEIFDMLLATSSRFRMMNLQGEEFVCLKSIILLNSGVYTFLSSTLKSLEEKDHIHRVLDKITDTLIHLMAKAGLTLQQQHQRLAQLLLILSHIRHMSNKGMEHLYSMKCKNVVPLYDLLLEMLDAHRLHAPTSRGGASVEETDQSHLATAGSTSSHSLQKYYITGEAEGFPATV

[11] = Drug concentration in C57BL/6 mouse ileum at 20 mg/kg, po administered for 5 days and measured after 1 hr post final dose by LC-MS analysis; type: ADME, organism-based; conditions: time 5 day, read-out: Ct
[12] = test system: Mus musculus; assay: In vivo inhibition of FABP1 in western diet and CCl4-induced nonalcoholic steatohepatitis C57BL/6 mouse assessed as increase in excretion of NEFA in fecal at 20 mg/kg, po administered for 12 weeks starting from week 8 and change in dose for every 5 days; type: functional, organism-based; conditions: time 4.0 weeks
[13] = Activation of Gal-DBD and NHRLBD fused RXRalpha (unknown origin) transfected in African green monkey CV-1 cells by luciferase reporter assay; type: cell-based; conditions: Homo sapiens
[14] = biological target: T2, Peroxisome proliferator-activated receptor alpha (Homo sapiens, UniProt Q07869); assay: Inhibition of pBIND-PPARalpha (unknown origin) transfected in HepG2 cells incubated for 18 hrs in presence of […] by dual luciferase reporter assay; type: cell-based
T2 sequence (Q07869 whole entry): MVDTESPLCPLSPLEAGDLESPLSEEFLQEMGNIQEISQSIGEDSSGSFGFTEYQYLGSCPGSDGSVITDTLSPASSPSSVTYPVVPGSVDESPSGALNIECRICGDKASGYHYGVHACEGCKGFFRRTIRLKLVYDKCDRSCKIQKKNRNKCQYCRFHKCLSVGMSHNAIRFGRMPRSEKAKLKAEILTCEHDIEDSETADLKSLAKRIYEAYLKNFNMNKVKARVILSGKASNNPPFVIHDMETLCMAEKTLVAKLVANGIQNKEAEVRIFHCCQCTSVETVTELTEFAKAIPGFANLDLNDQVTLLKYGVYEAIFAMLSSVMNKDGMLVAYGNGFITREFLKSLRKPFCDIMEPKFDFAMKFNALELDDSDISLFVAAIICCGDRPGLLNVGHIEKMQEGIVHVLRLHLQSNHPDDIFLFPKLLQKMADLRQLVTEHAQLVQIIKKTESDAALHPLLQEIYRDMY

[15] = Subacute toxicity in ICR mouse assessed as changes in serum UA level at 500 mg/kg/day, po administered for 14 days; type: organism-based; conditions: in vivo, 336 h, time 14 day
[16] = test system: Mus musculus; assay: Anti-NASH activity in western diet and CCl4-induced nonalcoholic steatohepatitis C57BL/6 mouse assessed as alleviation of ballooning at 20 mg/kg, po administered for 12 weeks starting from week 8 and change in dose for every 5 days; type: functional, organism-based; conditions: time 4.0 weeks
[17] = biological target: T3, Bile acid receptor (Mus musculus) (UniProt Q60641); assay: Activation of FXR in C57BL/6 mouse ileum assessed as upregulation of OST-beta gene expression at 20 mg/kg, po administered for 5 days and measured after 1 hr post final dose by RT-PCR analysis; type: organism-based; conditions: filed as activator, time 5.0 day
T3 sequence (whole entry): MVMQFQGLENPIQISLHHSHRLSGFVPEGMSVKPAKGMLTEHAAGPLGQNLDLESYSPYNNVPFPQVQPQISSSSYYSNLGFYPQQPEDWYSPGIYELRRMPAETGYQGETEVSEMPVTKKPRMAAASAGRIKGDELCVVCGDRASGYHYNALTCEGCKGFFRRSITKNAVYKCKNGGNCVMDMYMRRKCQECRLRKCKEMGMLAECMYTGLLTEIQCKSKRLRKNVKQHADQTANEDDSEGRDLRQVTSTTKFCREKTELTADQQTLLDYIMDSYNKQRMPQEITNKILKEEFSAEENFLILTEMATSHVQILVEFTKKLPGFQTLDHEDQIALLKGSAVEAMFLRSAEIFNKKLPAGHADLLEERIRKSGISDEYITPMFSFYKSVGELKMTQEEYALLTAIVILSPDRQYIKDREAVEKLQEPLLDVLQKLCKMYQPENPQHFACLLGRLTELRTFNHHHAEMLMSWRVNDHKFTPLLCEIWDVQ

[18] = biological target: Free fatty acid receptor 1 (Homo sapiens, UniProt O14842); assay: Agonist activity at human FFA1 stably expressed in CHO cells assessed as intracellular calcium flux by FLIPR assay; type: functional, cell-based
Chain of Free fatty acid receptor 1 (O14842 whole entry): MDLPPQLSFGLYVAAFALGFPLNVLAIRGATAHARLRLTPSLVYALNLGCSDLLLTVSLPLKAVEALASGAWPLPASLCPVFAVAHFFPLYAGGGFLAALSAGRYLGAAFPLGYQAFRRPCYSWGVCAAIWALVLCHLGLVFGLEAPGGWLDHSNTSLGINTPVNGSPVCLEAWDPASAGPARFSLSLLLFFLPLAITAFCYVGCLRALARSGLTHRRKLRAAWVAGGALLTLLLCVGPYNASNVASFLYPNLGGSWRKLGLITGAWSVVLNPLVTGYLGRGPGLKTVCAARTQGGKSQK

[19] = Subacute toxicity in ICR mouse assessed as changes in serum TBA level at 500 mg/kg/day, po administered for 14 days; type: organism-based; conditions: in vivo, 336 h, time 14 day
[20] = test system: Mus musculus; assay: Anti-NASH activity in western diet and CCl4-induced nonalcoholic steatohepatitis C57BL/6 mouse assessed as reduction in liver weight ratio at 20 mg/kg, po administered for 12 weeks starting from week 8 and change in dose for every 5 days; type: functional, organism-based; conditions: time 4.0 weeks
[21] = Agonist activity at PPARbeta/delta (unknown origin) transfected in HepG2 cells incubated for 18 hrs by renilla/firefly based dual-glo luciferase assay; type: cell-based; conditions: Homo sapiens, HepG2, 18 h

`O=C(O)C1(c2cccc(-c3ccc(OCc4c(-c5c(Cl)cccc5Cl)noc4C4CC4)cc3)c2)CC1` gave an IC50 [1] of 2.7 µM, a remaining at 1 h [2] of 71% and an IC50 [3] of over 10 µM. For the same compound, the Activity [4] was “Non-Toxic”, the EC50 [5] was over 10 µM and the Kp at 120 h [6] was 5.1. The concentration at 120 h [7] was 37.2 ng/g, the remaining at 1 h [8] was 57.4% and the Activity [9] was “Active”. For the same compound, the EC50 [10] was over 10 µM, the concentration at 120 h [11] was 996 ng/g and the Activity [12] was “Active”. The EC50 [13] was over 10 µM, the IC50 [14] was over 10 µM and the Activity [15] was “Non-Toxic”. The Activity [16] was “Active”, the Activity [17] was “Active” and the EC50 [18] was over 10 µM. The Activity [19] was “Non-Toxic”, the Activity [20] was “Active” and the EC50 [21] was over 10 µM.
